Values quoted from earlier work, collected in patent publication US5135753A, “Method and therapeutic system for smoking cessation” (Pharmetrix Corporation, priority 1991, dated 1992).

Experiments:
skin = conditions: average penetration rate through the skin; very approximate figures
[1] = Russell
[2] = test system: nicotinic cholinergic receptors in the CNS and at autonomic ganglia; conditions: in 10 minutes
[3] = test system: smoking withdrawal symptoms; conditions: low consistent blood levels of nicotine; craving may not be among the relieved symptoms

Structure (SMILES) | permeability at later times (human cadaver skin; at later times, "and more") [mg/cm^2.h] | permeability during the first day of patch use (human cadaver skin; first day of patch use) [mg/cm^2.h] | skin flux (skin) | lethal unit dose (average adult) | optimal steady-state blood level for nicotine replacement [1] [ng/mL] | rise in nicotine blood level required to obtain postsynaptic effects [2] | symptoms of nicotine withdrawal [3]
CN1CCCC1c1cccnc1 (stereo not shown) [nicotine] | ≥ 0.4 | ~0.1 | 100-300 μg/cm^2.h | about 60 mg | 10 to 15 | at least 10 ng/mL | relieve some of the symptoms of nicotine withdrawal
C[C@]12CC[C@@H]3c4ccc(O)cc4CC[C@H]3[C@@H]1CC[C@@H]2O [estradiol] |  |  | 0.01-0.03 μg/cm^2.h |  |  |  | 
Clc1cccc(Cl)c1N=C1NCCN1 [clonidine] |  |  | 0.5 μg/cm^2.h |  |  |  | 
O=[N+]([O-])OCC(CO[N+](=O)[O-])O[N+](=O)[O-] [nitroglycerin] |  |  | 10-25 μg/cm^2.h |  |  |  | 
